Results taken from patent US12435044B2, “Pyridazinone herbicides and pyridazinone intermediates used to prepare a herbicide” (FMC Corporation, priority 2018, dated 2025).

Key:
Format in all cases: in vivo
corn (Zea mays) = assay: Test E pre-/postemergence greenhouse test
Excerpt: (§1) Seeds of plant species selected from corn (Zea mays), soybean (Glycine max), velvetleaf (Abutilon theophrasti), lambsquarters (Chenopodium album), poinsettia, wild (Euphorbia heterophylla), pigweed, palmer (Amaranthus palmeri), waterhemp (common waterhemp, Amaranthus rudis), surinam grass (Brachiaria decumbens), crabgrass, large (Digitaria sanguinalis), crabgrass, Brazil (Digitaria horizontalis), panicum, fall (Panicum dichotomiflorum), foxtail, giant (Setaria faberii), foxtail, green (Setaria viridis), goosegrass (Eleusine indica), johnsongrass (Sorghum halepense), ragweed (common ragweed, Ambrosia elatior), barnyardgrass (Echinochloa crus-galli), sandbur (southern sandbur, Cenchrus echinatus), arrowleaf sida (Sida rhombifolia), ryegrass, Italian (Lolium multiflorum), dayflower, VA (Virginia (VA) dayflower, Commelina virginica), field bindweed (Convolvulus arvensis), morningglory (Ipomoea coccinea), horseweed (Conyza canadensis), kochia (Kochia scoparia), nutsedge, yellow (Cyperus esculentus) and hairy beggarticks (Bidenspilosa), were planted into a silt loam soil and treated preemergence with test chemicals formulated in a non-phytotoxic solvent mixture which included a surfactant.
(§2) At the same time, plants selected from these crop and weed species and also waterhemp_RES1, (ALS & Triazine resistant common waterhemp, Amaranthus rudis), and waterhemp_RES2, (ALS & HPPD resistant common waterhemp, Amaranthus rudis) were planted in pots containing Redi-Earth® planting medium (Scotts Company, 14111 Scottslawn Road, Marysville, Ohio 43041) comprising spaghnum peat moss, vermiculite, wetting agent and starter nutrients were treated with postemergence applications of test chemicals formulated in the same manner. Plants ranged in height from 2 to 18 cm for postemergence treatments (1- to 4-leaf stage). Treated plants and controls were maintained in a greenhouse for 14 to 21 d, after which time all species were compared to controls and visually evaluated. Plant response ratings, summarized in Table E, are based on a scale of 0 to 100 where 0 is no effect and 100 is complete control. A dash (-) response means no test result.

[1] = tested on: ragweed (common ragweed, Ambrosia elatior); assay: Test E pre-/postemergence greenhouse test
Excerpt: as §1, §2

[2] = tested on: horseweed (Conyza canadensis); assay: Test E pre-/postemergence greenhouse test
Excerpt: as §1, §2

[3] = tested on: barnyardgrass (Echinochloa crus-galli); assay: Test E pre-/postemergence greenhouse test
Excerpt: as §1, §2

soybean (Glycine max) = assay: Test E pre-/postemergence greenhouse test
Excerpt: as §1, §2

[4] = tested on: cutleaf geranium (Geranium dissectum); assay: Test C postemergence greenhouse test; details: scale 0 to 100
Excerpt: (§3) Seeds of plant species selected from blackgrass (Alopecurus myosuroides), ryegrass, Italian (Lolium multiflorum), wheat, winter (winter wheat, Triticum aestivum), galium (catchweed bedstraw, Galium aparine), corn (Zea mays), crabgrass, large (Digitaria sanguinalis), foxtail, giant (Setaria faberii), johnsongrass (Sorghum halepense), lambsquarters (Chenopodium album), morningglory (Ipomoea coccinea), nutsedge, yellow (Cyperus esculentus), pigweed (Amaranthus retroflexus), ragweed (common ragweed, Ambrosia elatior), soybean (Glycine max), barnyardgrass (Echinochloa crus-galli), oilseed rape (Brassica napus), waterhemp (common waterhemp, Amaranthus rudis), pigweed, palmer (Amaranthus palmeri), kochia (Kochia scoparia), oat, wild (Avena fatua), surinam grass (Brachiaria decumbens), windgrass (Apera spica-venti), poinsettia, wild (Euphorbia heterophylla) and velvetleaf (Abutilon theophrasti) were planted into a silt loam soil and treated preemergence with test chemicals formulated in a non-phytotoxic solvent mixture which included a surfactant.
(§4) At the same time, plants selected from these crop and weed species and also chickweed (common chickweed, Stellaria media), buckwheat, wild (Polygonum convolvulus), mustard, wild (Sinapis arvensis), field poppy (Papaver rhoeas), field violet (Viola arvensis), nightshade (eastern black nightshade, Solanum ptycanthum), speedwell (bird's-eye speedwell, Veronica persica), horseweed (Conyza canadensis), cutleaf geranium (Geranium dissectum), and Canada thistle (Cirsium arvense) were planted in pots containing Redi-Earth® planting medium (Scotts Company, 14111 Scottslawn Road, Marysville, Ohio 43041) comprising spaghnum peat moss, vermiculite, wetting agent and starter nutrients and treated with postemergence applications of test chemicals formulated in the same manner. Plants ranged in height from 2 to 18 cm (1- to 4-leaf stage) for postemergence treatments. Treated plants and controls were maintained in a greenhouse for 13 to 21 d, after which time all species were compared to controls and visually evaluated. Plant response ratings, summarized in Table C-1 (postemergence) and C-2 (preemergence), are based on a scale of 0 to 100 where 0 is no effect and 100 is complete control. A dash (-) response means no test result.

[5] = tested on: Canada thistle (Cirsium arvense); assay: Test C postemergence greenhouse test; details: scale 0 to 100
Excerpt: as §3, §4

[6] = tested on: mustard, wild (Sinapis arvensis); assay: Test C postemergence greenhouse test; details: scale 0 to 100
Excerpt: as §3, §4

[7] = tested on: field violet (Viola arvensis); assay: Test C postemergence greenhouse test; details: scale 0 to 100
Excerpt: as §3, §4

[8] = tested on: speedwell (bird's-eye speedwell, Veronica persica); assay: Test C postemergence greenhouse test; details: scale 0 to 100
Excerpt: as §3, §4

[9] = tested on: buckwheat, wild (Polygonum convolvulus); assay: Test C postemergence greenhouse test; details: scale 0 to 100
Excerpt: as §3, §4

Cc1ccc2ccc(C)c(-c3c(O)c(Cl)nn(C)c3=O)c2c1 [Cpd. No. 20, 6-chloro-4-(2,7-dimethyl-1-naphthalenyl)-5-hydroxy-2-methyl-3(2H)-pyridazinone]
Plant response rating, Corn (corn (Zea mays); Postemergence, 16 g ai/ha): 5 | Plant response rating, Corn (corn (Zea mays); Postemergence, 31 g ai/ha): 20 | Plant response rating, Corn (corn (Zea mays); Postemergence, 62 g ai/ha): 10 | Plant response rating, Corn (corn (Zea mays); Postemergence, 125 g ai/ha): 10 | Plant response rating, Corn (corn (Zea mays); Preemergence, 16 g ai/ha): 0 | Plant response rating, Corn (corn (Zea mays); Preemergence, 31 g ai/ha): 0 | Plant response rating, Corn (corn (Zea mays); Preemergence, 62 g ai/ha): 0 | Plant response rating, Corn (corn (Zea mays); Preemergence, 125 g ai/ha): 0 | Plant response rating, Ragweed ([1]; Postemergence, 16 g ai/ha): 90 | Plant response rating, Ragweed ([1]; Postemergence, 31 g ai/ha): 85 | Plant response rating, Ragweed ([1]; Postemergence, 62 g ai/ha): 95 | Plant response rating, Ragweed ([1]; Postemergence, 125 g ai/ha): 95 | Plant response rating, Ragweed ([1]; Preemergence, 16 g ai/ha): 60 | Plant response rating, Ragweed ([1]; Preemergence, 31 g ai/ha): 95 | Plant response rating, Ragweed ([1]; Preemergence, 62 g ai/ha): 95 | Plant response rating, Ragweed ([1]; Preemergence, 125 g ai/ha): 98 | Plant response rating, Horseweed ([2]; Postemergence, 16 g ai/ha): 80 | Plant response rating, Horseweed ([2]; Postemergence, 31 g ai/ha): 75 | Plant response rating, Horseweed ([2]; Postemergence, 62 g ai/ha): 85 | Plant response rating, Horseweed ([2]; Postemergence, 125 g ai/ha): 80 | Plant response rating, Barnyardgrass ([3]; Preemergence, 16 g ai/ha): 0 | Plant response rating, Barnyardgrass ([3]; Preemergence, 31 g ai/ha): 75 | Plant response rating, Barnyardgrass ([3]; Preemergence, 62 g ai/ha): 80 | Plant response rating, Barnyardgrass ([3]; Preemergence, 125 g ai/ha): 100 | Plant response rating, Soybean (soybean (Glycine max); Postemergence, 16 g ai/ha): 10 | Plant response rating, Soybean (soybean (Glycine max); Postemergence, 31 g ai/ha): 15 | Plant response rating, Soybean (soybean (Glycine max); Postemergence, 62 g ai/ha): 30 | Plant response rating, Soybean (soybean (Glycine max); Postemergence, 125 g ai/ha): 40 | Plant response rating, Soybean (soybean (Glycine max); Preemergence, 16 g ai/ha): 0 | Plant response rating, Soybean (soybean (Glycine max); Preemergence, 62 g ai/ha): 15 | Plant response rating, Soybean (soybean (Glycine max); Preemergence, 125 g ai/ha): 0

Cc1cc(Cl)c2ccccc2c1-c1c(O)c(Cl)nn(C)c1=O [Cpd. No. 65]
Plant response rating, Corn (corn (Zea mays); Postemergence, 16 g ai/ha): 0 | Plant response rating, Corn (corn (Zea mays); Postemergence, 31 g ai/ha): 20 | Plant response rating, Corn (corn (Zea mays); Postemergence, 62 g ai/ha): 23 | Plant response rating, Corn (corn (Zea mays); Postemergence, 125 g ai/ha): 35 | Plant response rating, Corn (corn (Zea mays); Preemergence, 16 g ai/ha): 0 | Plant response rating, Corn (corn (Zea mays); Preemergence, 31 g ai/ha): 5 | Plant response rating, Corn (corn (Zea mays); Preemergence, 62 g ai/ha): 20 | Plant response rating, Corn (corn (Zea mays); Preemergence, 125 g ai/ha): 43 | Plant response rating, Ragweed ([1]; Postemergence, 16 g ai/ha): 95 | Plant response rating, Ragweed ([1]; Postemergence, 31 g ai/ha): 93 | Plant response rating, Ragweed ([1]; Postemergence, 62 g ai/ha): 95 | Plant response rating, Ragweed ([1]; Postemergence, 125 g ai/ha): 93 | Plant response rating, Ragweed ([1]; Preemergence, 16 g ai/ha): 75 | Plant response rating, Ragweed ([1]; Preemergence, 31 g ai/ha): 99 | Plant response rating, Ragweed ([1]; Preemergence, 62 g ai/ha): 100 | Plant response rating, Ragweed ([1]; Preemergence, 125 g ai/ha): 100 | Plant response rating, Horseweed ([2]; Postemergence, 16 g ai/ha): 65 | Plant response rating, Horseweed ([2]; Postemergence, 31 g ai/ha): 75 | Plant response rating, Horseweed ([2]; Postemergence, 62 g ai/ha): 85 | Plant response rating, Horseweed ([2]; Postemergence, 125 g ai/ha): 85 | Plant response rating, Horseweed ([2]; Preemergence, 16 g ai/ha): 100 | Plant response rating, Horseweed ([2]; Preemergence, 31 g ai/ha): 100 | Plant response rating, Horseweed ([2]; Preemergence, 62 g ai/ha): 100 | Plant response rating, Horseweed ([2]; Preemergence, 125 g ai/ha): 100 | Plant response rating, Barnyardgrass ([3]; Postemergence, 16 g ai/ha): 80 | Plant response rating, Barnyardgrass ([3]; Postemergence, 31 g ai/ha): 88 | Plant response rating, Barnyardgrass ([3]; Postemergence, 62 g ai/ha): 93 | Plant response rating, Barnyardgrass ([3]; Postemergence, 125 g ai/ha): 95 | Plant response rating, Barnyardgrass ([3]; Preemergence, 16 g ai/ha): 0 | Plant response rating, Barnyardgrass ([3]; Preemergence, 31 g ai/ha): 40 | Plant response rating, Barnyardgrass ([3]; Preemergence, 62 g ai/ha): 38 | Plant response rating, Barnyardgrass ([3]; Preemergence, 125 g ai/ha): 60 | Plant response rating, Soybean (soybean (Glycine max); Postemergence, 16 g ai/ha): 70 | Plant response rating, Soybean (soybean (Glycine max); Postemergence, 31 g ai/ha): 80 | Plant response rating, Soybean (soybean (Glycine max); Postemergence, 62 g ai/ha): 90 | Plant response rating, Soybean (soybean (Glycine max); Postemergence, 125 g ai/ha): 93 | Plant response rating, Soybean (soybean (Glycine max); Preemergence, 16 g ai/ha): 23 | Plant response rating, Soybean (soybean (Glycine max); Preemergence, 31 g ai/ha): 13 | Plant response rating, Soybean (soybean (Glycine max); Preemergence, 62 g ai/ha): 15 | Plant response rating, Soybean (soybean (Glycine max); Preemergence, 125 g ai/ha): 43 | Plant response rating, Cutleaf Geranium ([4]; 16 g ai/ha): 85 | Plant response rating, Cutleaf Geranium ([4]; 31 g ai/ha): 90 | Plant response rating, Cutleaf Geranium ([4]; 62 g ai/ha): 95 | Plant response rating, Cutleaf Geranium ([4]; 125 g ai/ha): 95 | Plant response rating, Canada Thistle ([5]; 16 g ai/ha): 80 | Plant response rating, Canada Thistle ([5]; 31 g ai/ha): 90 | Plant response rating, Canada Thistle ([5]; 62 g ai/ha): 98 | Plant response rating, Canada Thistle ([5]; 125 g ai/ha): 90 | Plant response rating, Mustard, Wild ([6]; 16 g ai/ha): 98 | Plant response rating, Mustard, Wild ([6]; 31 g ai/ha): 100 | Plant response rating, Mustard, Wild ([6]; 62 g ai/ha): 100 | Plant response rating, Mustard, Wild ([6]; 125 g ai/ha): 100 | Plant response rating, Field Violet ([7]; 16 g ai/ha): 70 | Plant response rating, Field Violet ([7]; 31 g ai/ha): 80 | Plant response rating, Field Violet ([7]; 62 g ai/ha): 85 | Plant response rating, Field Violet ([7]; 125 g ai/ha): 85 | Plant response rating, Speedwell ([8]; 16 g ai/ha): 55 | Plant response rating, Speedwell ([8]; 31 g ai/ha): 65 | Plant response rating, Speedwell ([8]; 62 g ai/ha): 75 | Plant response rating, Speedwell ([8]; 125 g ai/ha): 90 | Plant response rating, Buckwheat, Wild ([9]; 16 g ai/ha): 100 | Plant response rating, Buckwheat, Wild ([9]; 31 g ai/ha): 100 | Plant response rating, Buckwheat, Wild ([9]; 62 g ai/ha): 100 | Plant response rating, Buckwheat, Wild ([9]; 125 g ai/ha): 100
